Assay [1] concerns human embryonic stem cells (hESCs; H9). Kind of assay: Induction of late primitive streak from hESCs with CHIR. The format is cell-based. The conditions noted are these: CHIR 8 μM over 4 days. As for the experimental part:
hPSCs grown on Geltrex were washed once with PBS (Life Technologies, #10010-049) and dissociated into single cells with Accutase ([…] Technologies, #07920). Cells were then plated at a density of 2-2.4×10^4 (H9) or 1-1.4×10^4 (HDF, 2C) cells/cm^2 onto 24-well tissue culture plates (TPP, #92024) coated with 1% Geltrex in ReproFF2 supplemented with the ROCK inhibitor Y27632 (10 μM) (TOCRIS, #1254) and FGF2 (10 ng/ml). After 72 hours, cells (50% confluent) were briefly washed in PBS and then cultured in basic differentiation medium consisting of Advanced RPMI 1640 (Life Technologies, #12633-020) and 1X L-GlutaMAX (Life Technologies, #35050-061) supplemented with CHIR99021 (8-10 μM) (TOCRIS, #4423) for 4 days to induce late primitive streak cells Noggin (5 ng/ml) was also used for hiPSC differentiation in addition to CHIR (10 μM). To induce posterior intermediate mesoderm, cells were then cultured in Advanced RPMI+1X L-GlutaMAX+activin (10 ng/mL) (R&D, #338-AC-050) for 3 days. For induction of nephron progenitor cells, the media was then changed to Advanced RPMI+1X L-GlutaMAX+FGF9 (10 ng/ml) (R&D, #273-F9-025/CF) for 7 days. CHIR (3 μM) was added to the media from day 9 to 11 of differentiation to induce renal vesicles. On day 14, cells were switched to the basic differentiation medium and cultured for an additional 7 to 14 days (total of 21 to 28 days). […]

The test system of another assay is NPCs in 3D culture. Briefly: Growth factor and small molecule screening in 3D culture (LTL+ tubules). The format is cell-based, human. To be noted: added in 3D culture from day 10. As for the experimental part: FIG. 10. Spontaneous differentiation of SIX2+ cells into nephrons and growth factor screening in 3D culture. (a) Staining with PAX8 and LHX1 in hESCs on day 10 of the differentiation. hESCs were differentiated with CHIR 8 µM for 4 days, activn 10 ng/ml for 3 days, and FGF9 10 ng/ml for 3 days. […] Scale bar: 50 μm. (b) Brighfield imaging for hESCs on day 10 and 21 of the differentiation. FGF9 was withdrawn on day 10, and cells were cultured in the basic medium by day 21. Scale bars: 50 μm. (c) Brightfield and immunocytochemistry for LTL and NPHS1 in hESCs on day 28 of the differentiation. Scale bar: 50 μm. (d) The protocol for growth factor screening. Cells were replated to 3D culture on day 10, and the listed growth factors and small molecules were tested. (e) The number of LTL+ tubules in the organoids. […] (f) Brightfield imaging of 3D co-culture with an ureteric bud cell sphere. Scale bar: 100 μm. (g) Whole-mountstaining for LTL in the organoids on day 16. Scale bar: 100 μm. (h) Immunohistochemistry of the organoids on day 16. Scale bars: 50 μm. LTL: lotus tetragonolobus lectin. NPHS1: Nephrin.
To test whether the formation of epithelial structures could be facilitated by 3D culture conditions, on day 10, at the time of FGF9 withdrawal, the Inventors replated NPCs in ultra-low-attachment, round-bottom 96-well plates and cultured them for 1 week. NPCs formed 3D spherical aggregates, one per 96-well, in suspension culture.

Another assay deals with NPCs. Briefly: Induction of pre-tubular aggregates and renal vesicles from nephron progenitor cells. It is filed as cell-based, human. As for the experimental part:
hPSCs grown on Geltrex were washed once with PBS (Life Technologies, #10010-049) and dissociated into single cells with Accutase ([…] Technologies, #07920). Cells were then plated at a density of 2-2.4×10^4 (H9) or 1-1.4×10^4 (HDF, 2C) cells/cm^2 onto 24-well tissue culture plates (TPP, #92024) coated with 1% Geltrex in ReproFF2 supplemented with the ROCK inhibitor Y27632 (10 μM) (TOCRIS, #1254) and FGF2 (10 ng/ml). After 72 hours, cells (50% confluent) were briefly washed in PBS and then cultured in basic differentiation medium consisting of Advanced RPMI 1640 (Life Technologies, #12633-020) and 1X L-GlutaMAX (Life Technologies, #35050-061) supplemented with CHIR99021 (8-10 μM) (TOCRIS, #4423) for 4 days to induce late primitive streak cells Noggin (5 ng/ml) was also used for hiPSC differentiation in addition to CHIR (10 μM). To induce posterior intermediate mesoderm, cells were then cultured in Advanced RPMI+1X L-GlutaMAX+activin (10 ng/mL) (R&D, #338-AC-050) for 3 days. For induction of nephron progenitor cells, the media was then changed to Advanced RPMI+1X L-GlutaMAX+FGF9 (10 ng/ml) (R&D, #273-F9-025/CF) for 7 days. CHIR (3 μM) was added to the media from day 9 to 11 of differentiation to induce renal vesicles. On day 14, cells were switched to the basic differentiation medium and cultured for an additional 7 to 14 days (total of 21 to 28 days). The medium was replaced every 2 or 3 days. A variety of growth factors and small molecules were tested for differentiation.
hPSCs on day 9 of differentiation, which represents metanephric mesenchyme cells, were dissociated with Accutase and resuspended in the basic differentiation medium supplemented with CHIR (3 μM) and FGF9 (10 ng/mL), and placed in 96-well, round bottom, ultra-low attachment plates (Corning, #7007) at 1×10^5 cells per well. The plates were centrifuged at 1500 rpm for 15 seconds, and the cells then cultured at 37° C., 5% CO2 for 2 days. The medium was then changed to the basic differentiation medium supplemented with FGF9 10 ng/mL and cultured for 3 more days. […]

In assay [2] the test system is hPSC-derived renal vesicles. Kind of assay: Kidney development analysis (Notch inhibition) in kidney organoids. The conditions noted are these: DAPT 10 μM from day 14 to 21, 2D and 3D culture. It is filed as cell-based, human. As for the experimental part: FIG. 6. Modeling kidney development and injury in kidney organoids. (a) Schematic for kidney development analysis and nephrotoxicity assay. (b) Representative images of immunohistochemistry in structures derived from hESCs treated with DAPT 10 μM from day 14 to 21. n=4. Notch inhibition suppressed proximal tubule formation. Scale bars: 50 μm. […] Scale bars: 50 μm. […] (d) A low magnification image of gentamicin-treated organoids. Scale bar: 100 μm. CDH1: Cadherin-1 (E-cadherin). PODXL: Podocalyxin-like (Podocalyxin). LTL: lotus tetragonolobus lectin. KIM-1: kidney injury molecule-1. (e) Real-time quantitative PCR of KIM-1 in kidney organoids treated with gentamicin at indicated doses. Data is expressed as mean+/−SEM (n=10). […] Scale bars: 50 μm.
FIG. 12. Kidney development analysis. (a) DAPT was used to suppress Notch signaling from day 14 to 21. (b) CDH1, PODXL and LTL expression on day 21 in cells derived from hESCs in 2D culture. Scale bars: 50 (c) Percentage of LTL+ nephron structures in control and DAPT-treated on day 21. The nephron number was counted as CDH1+ tubules from 10 fields (×20 magnification) of each sample (n=2). CDH1: Cadherin-1 (E-cadherin). PODXL: Podocalyxin-like (Podocalyxin). […]

For a further assay, the system named is ARPKD-iPS organoids. Briefly: ARPKD organoid cyst formation in 3D culture. It is filed as cell-based, human. The conditions noted are these: forskolin treatment, 96-well plates, 24 in 24 organoids. An excerpt:
FIG. 26. Autosomal recessive polycystic kidney disease (ARPKD), organoid in 3D culture. This was done in 96-well plates. Cyst formation was 100% (24 in 24 organoids) in ARPKD-iPS with forskolin treatment. PKHD1 mutants were generated with CRISPR. The cystic phenotype appear from very early stage (day 22˜), meaning high-scale drug screening can be done, since media change will be much less frequent.

Here are results for 3 compounds from US20180258404A1, “METHODS OF GENERATING NEPHRONS FROM HUMAN PLURIPOTENT STEM CELLS” (THE BRIGHAM AND WOMEN'S HOSPITAL, INC., priority 2015, published 2018).

As to `Cc1c[nH]c(-c2cnc(NCCNc3ccc(C#N)cn3)nc2-c2ccc(Cl)cc2Cl)n1` [CHIR, CHIR99021], in assay [1], the “induction of T+TBX6+ primitive streak cells” value was “robustly induced and maintained a population of T+TBX6+ primitive streak cells”. Also, the “number of LTL+ tubules in the organoids” value with NPCs in 3D culture is “did not significantly increase the number of LTL+ tubules”. In addition, in the assay with NPCs (3D culture from day 9, studied on day 14, versus basic medium (ARPMI)), the “size of the organoids” value is “increased the size of the organoids”. In addition, in the assay with NPCs (CHIR 3 μM for 2 days from day 9 with FGF9 days 7-14, 2D culture), the “number of cells that downregulated SIX2 and co-expressed PAX8 and LHX1” value is recorded as “markedly increased”. Besides, the “PAX8+LHX1+ differentiated cells by flow cytometry” value in the assay with NPCs (CHIR 3 μM for 2 days from day 9 with FGF9 days 7-14, 2D culture, day 14) is given as approximately 75.9%.

Regarding `C[C@H](NC(=O)Cc1cc(F)cc(F)c1)C(=O)N[C@H](C(=O)OC(C)(C)C)c1ccccc1` [DAPT], the proximal tubule formation entry in assay [2] is “marked suppression of proximal tubule formation”.

In the assay on ARPKD-iPS organoids, `C=C[C@@]1(C)CC(=O)[C@]2(O)[C@@]3(C)[C@@H](O)CCC(C)(C)[C@@H]3[C@H](O)[C@H](OC(C)=O)[C@@]2(C)O1` [forskolin] yielded a cyst formation of 100%.
